Consider one compound from BindingDB's records for patent USRE49080 (Novartis AG, 2022).

This assay has as its target T1, Sodium/glucose cotransporter 2 (Homo sapiens, UniProt P31639).
T1 sequence (P31639 whole entry): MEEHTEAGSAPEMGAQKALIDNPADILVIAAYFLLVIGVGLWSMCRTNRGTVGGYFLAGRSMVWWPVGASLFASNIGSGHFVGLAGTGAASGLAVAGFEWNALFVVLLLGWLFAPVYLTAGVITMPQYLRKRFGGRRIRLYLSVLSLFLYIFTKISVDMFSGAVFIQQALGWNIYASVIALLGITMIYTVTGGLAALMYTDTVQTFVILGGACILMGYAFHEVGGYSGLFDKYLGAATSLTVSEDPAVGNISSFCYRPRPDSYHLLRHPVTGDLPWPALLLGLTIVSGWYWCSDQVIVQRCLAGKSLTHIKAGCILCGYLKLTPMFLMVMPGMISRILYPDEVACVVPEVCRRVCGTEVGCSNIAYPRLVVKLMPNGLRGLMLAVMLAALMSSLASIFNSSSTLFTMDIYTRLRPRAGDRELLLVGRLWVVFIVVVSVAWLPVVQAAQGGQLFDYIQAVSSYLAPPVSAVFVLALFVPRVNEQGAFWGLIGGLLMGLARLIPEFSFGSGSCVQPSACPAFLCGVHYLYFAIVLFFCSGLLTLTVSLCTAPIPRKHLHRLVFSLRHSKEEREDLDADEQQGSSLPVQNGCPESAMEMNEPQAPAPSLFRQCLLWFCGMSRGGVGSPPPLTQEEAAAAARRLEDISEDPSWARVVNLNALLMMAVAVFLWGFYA
Briefly: Inhibitory Effect on the Sodium-dependent Glucose Co-Transporter SGLT, SGLT1 and SGLT2. As to the method:
The SGLT-2 assay is carried out as follows: CHO-hSGLT2 cells are cultivated in Ham's F12 Medium (BioWhittaker) with 10% foetal calf serum and 250 μg/mL zeocin (Invitrogen), and HEK293-hSGLT2 cells are cultivated in DMEM medium with 10% foetal calf serum and 250 μg/mL zeocin (Invitrogen). The cells are detached from the culture flasks by washing twice with PBS and subsequently treating with trypsin/EDTA. After the addition of cell culture medium the cells are centrifuged, resuspended in culture medium and counted in a Casy cell counter. Then 40,000 cells per well are seeded into a white, 96-well plate coated with poly-D-lysine and incubated overnight at 37° C., 5% CO2. […] 250 μl of assay buffer and 5 μl of test compound are then added to each well and the plate is incubated for a further 15 minutes in the incubator. 5 μl of 10% DMSO are used as the negative control. The reaction is started by adding 5 μl of 14 C-AMG (0.05 μCi) to each well. After 2 hours' incubation at 37° C., 5% CO2, the cells are washed again with 250 μl of PBS ([…]) and then lysed by the addition of 25 μl of 0.1 N NaOH (5 min. at 37° C.). 200 μl of MicroScint20 (Packard) are added to each well and incubation is continued for a further 20 min at 37° C.

As a reminder, the IC50 is the concentration needed to halve the response being measured. A high value points to a need for much substance. `CN1CCOc2ccc(Cc3cc([C@@H]4O[C@H](CO)[C@@H](O)[C@H](O)[C@H]4O)ccc3Cl)cc21` [USRE49080, Example 11] showed an IC50 of 1.4 nM. That is a single-digit nanomolar value.
